Data taken from patent publication US20200207830A1, “TREM2 MUTANTS RESISTANT TO SHEDDASE CLEAVAGE” (NOVARTIS AG, priority 2017, published 2020).

Legend:
CHO-hDAP12-hTREM2 cells = test: Live cell imaging of TREM2 cell surface expression in CHO-hDAP12-hTREM2 cells; assay type: cell-based; conditions: overnight treatment
Source text: (§1) CHO cells were transfected to co-express hDAP12 and hTREM2 using Lipofectamine LTX reagent (Thermofischer) according to the manufacturer's recommendations. One positive clone was selected and designated CHO-hDAP12-hTREM2. Human M2A macrophages were obtained from buffy coat using a negative isolation kit for monocytes (Stem cell technologies) and differentiated for 5 days in RPMI1640 medium with Glutamax (Gibco) supplemented with 10% FBS (Gibco), PenStrep (Gibco), 1% Sodium Pyruvate (Gibco), 0.025 M HEPES Buffer (Gibco), 0.05 mM β-mercaptoethanol (Gibco), M-CSF (40 ng/ml) and IL-4 (50 ng/ml). Cell surface TREM2 was detected by FACS as described above.
(§2) Human M2A macrophages or CHO-hDAP12-hTREM2 were seeded on 384 well plates (Greiner) and treated with ADAM inhibitors DPC333 or GI254023 at concentrations indicated in the figures. 16 h later cells were treated for 30 minutes with PMA (50 ng/ml) or 0.1% DMSO for 30 minutes. Plates were put on ice and stained with goat anti human TREM2 antibody AF1828 (R&D Systems) or isotype control and Hoechst stain followed by incubation with the secondary Alexa Fluor 488 conjugated anti goat antibody (Molecular Probes). Images were acquired using an InCe112000 analyzer (GE Healthcare). For image quantification the free open source software CellProfiler was applied.
To determine the contribution of ADAM10 or ADAM17 to shedding of TREM2 ectodomain, selective inhibitors were identified: DPC333 (Qian et al., Drug Metabolism and Disposition: the Biological Fate of Chemicals 35, 1916-1925, 2007) and GI254023 (Hundhausen et al., Blood. 2003; 102:1186-1195). DPC333 and GI254023 were characterized for inhibitory selectivity towards ADAM10 and ADAM17. […] Using live cell imaging, cell surface expression of hTREM2 was assessed in CHO-hDAP12-hTREM2 cells after overnight treatment of the cells with the two ADAM inhibitors under conditional shedding conditions (FIG. 2A) or after treatment of the cells with PMA (FIG. 2B). […] This effect might be attributed to true ADAM10 inhibition or it might be caused by unspecific inhibition of ADAM17 by GI254023 when used at high concentrations. […] To get closer to a physiological cellular system, a similar experiment was conducted in human M2A macrophages differentiated from CD^14+ human monocytes (FIGS. 2C-2D).

THP1 cells = test: Cell surface TREM2 and sTREM2 in THP1 CRISPR cell clones; assay type: cell-based, human
Method: THP1 cells stably coexpressing Cas9 and a blasticidin resistance gene delivered by lentivirus were cultured in RPMI medium containing 10% FBS, 1% L-glutamine, 1% pen/strep, and 10 μg/ml of blasticidin (Thermo Fisher Scientific). The cells were cultured at 37° C. in 5% CO2 atmosphere.
THP1-Cas9 cells were infected with lentiviruses expressing the puromycin resistance gene and sgRNAs (for vector design, see Hoffman, Proceedings of the National Academy of Sciences of the United States of America 111, 3128-3133, 2014) targeting either ADAM10 ([…], SEQ ID NO: 75) or ADAM17 ([…], SEQ ID NO: 76). Lentiviral packaging was carried out in HEK293T cells as described previously. Briefly, 30 μL of lentiviral sgRNA supernatant was added to 1×10^6 THP1-Cas9 cells in 2 ml medium containing 5 μg/ml polybrene (Sigma) and spun at 300 g for 90 minutes in a 6-well plate. After 24 hours the cells were spun down and resuspended in fresh culture medium containing 1.5 μg/mL puromycin. After 4 weeks of weekly media changes, genomic DNA was isolated using a Quick-gDNA miniprep kit (Zymo Research) to assess the insertions and deletions (indels) present in the pool by next-generation sequencing (NGS). To isolate clones containing only frameshift indels, cells were plated at limiting dilution into 96-well plates. Upon expansion of the clones, they were assayed by NGS and clones containing only frameshift alleles were selected for downstream assays.
To confirm the results in Example 2, a genetic approach was used to further investigate the contribution of ADAM10/17 to TREM2 shedding. Human monocytic THP1 cells were chosen as model system which endogenously expresses TREM2. Employing the CRISPR/CAS9 technology, clones were generated that lack expression of ADAM10 (AD10 H4) or ADAM17 (AD17 G12) as well as a control cell line (Ctrl gRNA). Absence of gene products was verified by FACS analysis or Western blot (FIGS. 3C-3D).
Cell surface expressed TREM2 and sTREM2 were assessed in the three cell lines in the same experiment using three different conditions: no treatment reflecting constitutive shedding, PMA treatment that maximally activates shedding, and finally PMA and DPC333 treatment. […] Maximally activating sheddases with PMA leads to a strong reduction of cell surface TREM2 both in the control cell line and in the ADAM10 deficient clone. This is reflected in a strong increase in sTREM2. In the ADAM17 deficient cell line, PMA treatment also leads to a reduction of cell surface TREM2, but to a smaller extent than in the control CRISPR clone. Also, the increase in sTREM2 is smaller compared to PMA treated control CRISPR clone and ADAM10 deficient clone. However, the cleavage of TREM2 in the AD17 G12 clone in the presence of PMA must be caused by a sheddase other than ADAM17. […]

ADAM17 = ADAM17 (Homo sapiens, UniProt P78536); test: In vitro inhibition of recombinant ADAM17; assay type: biochemical; conditions: Hepes buffer pH 7.5
ADAM10 = molecular target: T1, ADAM10 (Homo sapiens, UniProt O14672); test: In vitro inhibition of recombinant ADAM10; assay type: biochemical; conditions: Hepes buffer pH 7.5
T1 sequence (O14672 214-748): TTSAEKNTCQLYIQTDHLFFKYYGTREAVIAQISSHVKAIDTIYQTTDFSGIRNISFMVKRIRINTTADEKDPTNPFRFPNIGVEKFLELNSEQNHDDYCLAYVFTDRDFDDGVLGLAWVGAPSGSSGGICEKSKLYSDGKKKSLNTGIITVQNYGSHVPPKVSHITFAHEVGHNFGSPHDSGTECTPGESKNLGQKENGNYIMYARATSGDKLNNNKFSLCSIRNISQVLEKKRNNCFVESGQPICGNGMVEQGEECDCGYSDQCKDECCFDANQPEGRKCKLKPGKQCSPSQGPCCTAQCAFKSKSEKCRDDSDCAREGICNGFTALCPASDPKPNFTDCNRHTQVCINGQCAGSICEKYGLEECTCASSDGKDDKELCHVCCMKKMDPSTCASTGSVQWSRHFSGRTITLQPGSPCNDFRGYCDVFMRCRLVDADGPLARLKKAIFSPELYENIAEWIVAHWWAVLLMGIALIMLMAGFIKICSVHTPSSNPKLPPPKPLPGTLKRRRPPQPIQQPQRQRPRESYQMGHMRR
Method: FIG. 2E is a line graph showing inhibition of recombinant ADAM10 and ADAM17 by DPC333 and GI254023 in vitro in Hepes buffer at pH 7.5.
Enzyme selectivity of the ADAM inhibitors applied was determined in an in vitro cleavage assay and both inhibitors were used over a broad concentration range to investigate effects on TREM2 cell surface expression in CHO-hDAP12-hTREM2 cells and human M2A macrophages.

human M2A macrophages = test: Live cell imaging of TREM2 cell surface expression in human M2A macrophages; assay type: cell-based
Source text: as §1, §2
To determine the contribution of ADAM10 or ADAM17 to shedding of TREM2 ectodomain, selective inhibitors were identified: DPC333 (Qian et al., Drug Metabolism and Disposition: the Biological Fate of Chemicals 35, 1916-1925, 2007) and GI254023 (Hundhausen et al., Blood. 2003; 102:1186-1195). DPC333 and GI254023 were characterized for inhibitory selectivity towards ADAM10 and ADAM17. […] Using live cell imaging, cell surface expression of hTREM2 was assessed in CHO-hDAP12-hTREM2 cells after overnight treatment of the cells with the two ADAM inhibitors under conditional shedding conditions (FIG. 2A) or after treatment of the cells with PMA (FIG. 2B). […]

[1] = molecular target: T2, TREM2 stalk region derived synthetic peptide, Peptide 6 (H-SI cleavage site replaced with IDP)
T2 chain: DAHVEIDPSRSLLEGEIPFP

[2] = molecular target: T3, TREM2 stalk region derived synthetic peptide, Peptide 5 (H-SI cleavage site replaced with IPD)
T3 chain: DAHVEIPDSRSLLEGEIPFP

[3] = molecular target: T4, TREM2 stalk region derived synthetic peptide, Peptide 3
T4 chain: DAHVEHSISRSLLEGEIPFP

[4] = molecular target: T5, TREM2 stalk region derived synthetic peptide, Peptide 4 (H-SI cleavage site replaced with IPP)
T5 chain: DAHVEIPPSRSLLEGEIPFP

BWZ-lacZ-mDAP12 cells = test: Reporter gene assay in BWZ cells; assay type: cell-based; conditions: stably expressed with mDAP12, activating anti-TREM2 mAb vs isotype control, 16 h, compared with BWZ-TREM2-WT cells
Method: BWZ thymoma reporter cells, which express lacZ under control of the promoter for nuclear factor of activated T cells (NFAT, Hsieh et al, Journal of Neurochemistry 109, 1144-1156, 2009) were transfected to co-express mDAP12 and WT hTREM2 or T2double TREM2. Cells were seeded in RPMI without phenol red supplemented with 2% FBS and 1% non-essential amino acids on high binding microtiter plates (Greiner) pre-coated with rat anti-mouse/human TREM2 mAb (R&D, MAB17291) or isotype control. Cell culture was continued for 16 h. Reporter gene activity was assessed with the Beta-glo assay system (Promega) according to the manufacturer's recommendations using an Envision 2104 multilabel reader (Perkin Elmer).
Next it was tested whether the T2-double-TREM2 construct retained functionality. To this end this mutant was stably transfected into BWZ cells that already expressed mouse DAP12 and a beta-Gal reporter driven by NFAT (Hsieh, Journal of Neurochemistry 109, 1144-1156, 2009). mDAP12 expressed without TREM2 in this cell lines represents background reporter gene activity (RGA) in this system. […] Thus, the T2-double-TREM2 construct retained TREM2 functions.

Chain of ADAM17 (P78536 215-824): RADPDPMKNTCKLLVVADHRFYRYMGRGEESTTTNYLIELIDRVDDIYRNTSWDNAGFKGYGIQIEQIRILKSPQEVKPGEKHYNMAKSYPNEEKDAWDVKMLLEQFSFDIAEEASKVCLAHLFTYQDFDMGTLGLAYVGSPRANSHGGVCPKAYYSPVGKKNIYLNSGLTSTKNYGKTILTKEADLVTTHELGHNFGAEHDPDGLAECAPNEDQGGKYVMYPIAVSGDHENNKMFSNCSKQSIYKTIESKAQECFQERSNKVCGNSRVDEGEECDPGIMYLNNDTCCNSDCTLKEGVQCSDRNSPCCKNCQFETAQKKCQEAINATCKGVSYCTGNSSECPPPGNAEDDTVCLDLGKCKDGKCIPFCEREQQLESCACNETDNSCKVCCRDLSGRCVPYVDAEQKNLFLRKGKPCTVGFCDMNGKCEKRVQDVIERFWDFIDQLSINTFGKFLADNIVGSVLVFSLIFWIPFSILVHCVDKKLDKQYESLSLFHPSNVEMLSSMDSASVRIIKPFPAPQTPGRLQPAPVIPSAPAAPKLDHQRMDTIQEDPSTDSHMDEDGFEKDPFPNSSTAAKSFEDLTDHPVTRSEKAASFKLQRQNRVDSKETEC

Cc1cc(COc2ccc([C@]3(N)CCN([C@H](CC(C)C)C(=O)NO)C3=O)cc2)c2ccccc2n1 [DPC333]
TREM2 cell surface levels (CHO-hDAP12-hTREM2 cells; conditional shedding (steady state) conditions, FIG. 2A): dose-dependently increases | TREM2 cell surface levels (CHO-hDAP12-hTREM2 cells; then PMA-treated cells, FIG. 2B): dose-dependently increases | TREM2 cell surface levels (THP1 cells; co-treatment with PMA and DPC333, AD10 H4 cells (ADAM10 knockout)): restored | TREM2 cell surface levels (THP1 cells; co-treatment with PMA and DPC333, AD17 G12 clone (ADAM17 knockout)): smaller effects | TREM2 cell surface levels (THP1 cells; co-treatment with PMA and DPC333, Ctrl gRNA cells): restored | sTREM2 (THP1 cells; co-treatment with PMA and DPC333 compared to PMA treatment only, AD17 G12 clone): strongly reduced | IC50 (ADAM17): < 0.6 nM | IC50 (ADAM10): 5.3 nM | TREM2 cell surface expression (human M2A macrophages; additional PMA treatment, FIG. 2D): increases TREM2 cell surface expression dose-dependently | TREM2 cell surface expression (human M2A macrophages; steady-state shedding, FIG. 2C): increases TREM2 cell surface expression dose-dependently

B1: recombinant ADAM10 (protein)
chain: TTSAEKNTCQLYIQTDHLFFKYYGTREAVIAQISSHVKAIDTIYQTTDFSGIRNISFMVKRIRINTTADEKDPTNPFRFPNIGVEKFLELNSEQNHDDYCLAYVFTDRDFDDGVLGLAWVGAPSGSSGGICEKSKLYSDGKKKSLNTGIITVQNYGSHVPPKVSHITFAHEVGHNFGSPHDSGTECTPGESKNLGQKENGNYIMYARATSGDKLNNNKFSLCSIRNISQVLEKKRNNCFVESGQPICGNGMVEQGEECDCGYSDQCKDECCFDANQPEGRKCKLKPGKQCSPSQGPCCTAQCAFKSKSEKCRDDSDCAREGICNGFTALCPASDPKPNFTDCNRHTQVCINGQCAGSICEKYGLEECTCASSDGKDDKELCHVCCMKKMDPSTCASTGSVQWSRHFSGRTITLQPGSPCNDFRGYCDVFMRCRLVDADGPLARLKKAIFSPELYENIAE
in vitro cleavage of peptide by ADAM10 [1]: Peptides 5 and 6 were slowly cleaved by ADAM10 (data not shown) | in vitro cleavage of peptide by ADAM10 [2]: Peptides 5 and 6 were slowly cleaved by ADAM10 (data not shown) | in vitro cleavage of peptide by ADAM10, HPLC [3]: The same analysis was carried out with ADAM10, and a very similar cleavage pattern was obtained (data not shown) | in vitro cleavage of peptide by ADAM10 [4]: Peptide 4, with its IPP replacement for the H-SI cleavage site, appeared to be cleavage resistant in vitro

B2: T2-double: human TREM2 mutant combining T2-YGG and T2-WFR mutations; SEQ ID NO: 48 (protein)
chain: MEPLRLLILLFVTELSGAHNTTVFQGVAGQSLQVSCPYDSMKHWGRRKAWCRQLGEKGPCQRVVSTHNLWLLSFLRRWNGSTAITDDTLGGTLTITLRNLQPHDAGLYQCQSLHGSEADTLRKVLVEVLADPLDHRDAGDLWFPGESESFEDAHVYGGWGGWGPEGEIWFRWTSILLLLACIFLIKILAASALWAAAWHGQKPGTHPPSELDCGHDPGYQLQTLPGLRDT
Reporter gene activity (RGA) after TREM2 activation (BWZ-lacZ-mDAP12 cells): comparable activity
